Results on 26 molecules are retold here after patent publication US10035790B2, “RORγ modulators” (BRISTOL-MYERS SQUIBB COMPANY, priority 2012, dated 2018).

One assay concerns the target T1, ligand binding domain of human RORγ (A262-S507) (Homo sapiens, UniProt P51449).
T1 construct: made in house; host or cells: E. coli
T1 sequence (P51449 262-507): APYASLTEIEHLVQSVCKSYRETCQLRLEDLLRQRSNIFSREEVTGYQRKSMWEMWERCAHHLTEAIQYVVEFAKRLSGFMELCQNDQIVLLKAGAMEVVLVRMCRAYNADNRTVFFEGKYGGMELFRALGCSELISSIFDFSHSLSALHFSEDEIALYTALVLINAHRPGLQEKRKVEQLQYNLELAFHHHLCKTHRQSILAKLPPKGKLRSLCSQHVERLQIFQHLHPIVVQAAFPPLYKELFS
Description: General RORγ SPA binding assay (competition with [3H]25-hydroxycholesterol). The conditions noted are these: IC50, RORγ SPA binding assay, inhibition of [3H]25-hydroxycholesterol binding. An outline of the steps: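 Step one: compound meets 50 nM nickel-purified, His-tagged protein from E. coli for 15 min at room temperature (PBS, 0.5% fatty acid free BSA). Step two: radioligand is added for another 15 min. Step three: SPA beads are added for 30 min before scintillation reading and IC50 fitting.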
Take `CC(O)(COc1ccnc(C(F)(F)F)n1)c1cnc(N)nc1C1CCN(C(=O)Oc2c(F)cccc2F)CC1` (centres unmarked) [Compound D46, 2,6-Difluorophenyl 4-[2-amino-5-(1-hydroxy-1-methyl-2-{[2-(trifluoromethyl)pyrimidin-4-yl]oxy}ethyl)pyrimidin-4-yl]piperidine-1-carboxylate]: the IC50 – broadly, the concentration that inhibits the measured activity by half – stood at 6.3 nM.

Staying with this assay, now noted: RORγ SPA binding assay, inhibition of [3H]25-hydroxycholesterol binding; read-out: IC50.
As to `Cc1ncc(C(=O)NCc2ccc(Cl)cc2)c(C2CCN(C(=O)Cc3c(F)cccc3F)CC2)n1` [Compound A62, N-(4-chlorobenzyl)-4-(1-(2-(2,6-difluorophenyl)acetyl)piperidin-4-yl)-2-methylpyrimidine-5-carboxamide], the IC50 is 43.4 nM.

Regarding `C/C(=N/Oc1cc(Cl)nc(C(F)(F)F)c1)c1cnc(C)nc1C1CCN(C(=O)Nc2c(F)cccc2F)CC1` [Compound B41, 4-{5-[(1Z)—N-{[2-chloro-6-(trifluoromethyl)pyridin-4-yl]oxy}ethanimidoyl]-2-methylpyrimidin-4-yl}-N-(2,6-difluorophenyl)piperidine-1-carboxamide], the IC50 is 12.6 nM.

Consider `Cc1nc(N)nc(C2CCN(C(=O)Nc3c(F)cccc3C(F)(F)F)CC2)c1-c1nnc(-c2ccnc(C(F)(F)F)n2)o1` [Compound C49, 4-(2-Amino-6-methyl-5-{5-[2-(trifluoromethyl)pyrimidin-4-yl]-1,3,4-oxadiazol-2-yl}pyrimidin-4-yl)-N-[2-fluoro-6-(trifluoromethyl)phenyl]piperidine-1-carboxamide], for which the IC50 worked out at 23.3 nM.

Take `Cc1nc(C)c(-c2nc(Cc3ccc(F)cc3)no2)c(C2CCN(C(=O)Cc3c(F)cccc3F)CC2)n1` [Compound C3, 2-(2,6-difluorophenyl)-1-(4-(5-(3-(4-fluorobenzyl)-1,2,4-oxadiazol-5-yl)-2,6-dimethylpyrimidin-4-yl)piperidin-1-yl)ethanone]: the IC50 turned out to be 606 nM.

With `Cc1nc(C2CCN(C(=O)Cc3c(F)cccc3F)CC2)c(C(=O)NCc2ccnc(C(F)(F)F)c2)c(=O)[nH]1` [Compound I5, 4-(1-(2-(2,6-difluorophenyl)acetyl)piperidin-4-yl)-2-methyl-6-oxo-N-((2-(trifluoromethyl)pyridin-4-yl)methyl)-1,6-dihydropyrimidine-5-carboxamide], the IC50 stood at 69.3 nM.

As for `CC(O)(COc1ccnc(C(F)(F)F)n1)c1cnc(OCCF)nc1C1CCN(C(=O)Nc2c(F)cccc2F)CC1` (centres unmarked) [Compound D43, N-(2,6-Difluorophenyl)-4-{2-[(2-fluoroethyl)oxy]-5-(1-hydroxy-1-methyl-2-{[2-(trifluoromethyl)pyrimidin-4-yl]oxy}ethyl)pyrimidin-4-yl}piperidine-1-carboxamide], the IC50 is 22 nM.

Regarding `Cc1nc(C)c(-c2ncc(-c3ccnc(C(F)(F)F)n3)o2)c(C2CCN(C(=O)Nc3c(F)cccc3F)CC2)n1` [Compound C68, N-(2,6-Difluorophenyl)-4-(2,6-dimethyl-5-{5-[2-(trifluoromethyl)pyrimidin-4-yl]-1,3-oxazol-2-yl}pyrimidin-4-yl)piperidine-1-carboxamide], the IC50 was found to be 102 nM.

Regarding `C/C(=N\Oc1cccc(C(F)(F)F)c1)c1cnc(C)nc1C1CCN(C(=O)Nc2c(F)cccc2C(F)(F)F)CC1` [Compound B45, N-[2-fluoro-6-(trifluoromethyl)phenyl]-4-{2-methyl-5-[(1E)-N-{[3-(trifluoromethyl)phenyl]oxy}ethanimidoyl]pyrimidin-4-yl}piperidine-1-carboxamide], the IC50 turned out to be 8 nM.

Regarding `Cc1nc(N)nc(C2CCN(C(=O)Nc3c(F)cccc3F)CC2)c1C(O)COc1cccc(C(F)(F)F)n1` (centres unmarked) [Compound N9, 4-[2-Amino-5-(1-hydroxy-2-{[6-(trifluoromethyl)pyridin-2-yl]oxy}ethyl)-6-methylpyrimidin-4-yl]-N-(2,6-difluorophenyl)piperidine-1-carboxamide], the IC50 is 4.2 nM.

Turning to `CC(=O)Nc1ncc(C(C)(O)COc2cccc(C(F)(F)F)n2)c(C2CCN(C(=O)Nc3c(F)cccc3F)CC2)n1` (centres unmarked) [Compound D32, 4-[2-(Acetylamino)-5-(1-hydroxy-1-methyl-2-{[6-(trifluoromethyl)pyridin-2-yl]oxy}ethyl)pyrimidin-4-yl]-N-(2,6-difluorophenyl)piperidine-1-carboxamide], the concentration for half-maximal inhibition (IC50) was found to be 13.9 nM.

`Cc1cc(C)cc(CNC(=O)c2cnc(C)nc2C2CCN(CC(=O)c3ccccc3Cl)CC2)c1` [Compound A115, 4-(1-(2-(2-Chlorophenyl)-2-oxoethyl)piperidin-4-yl)-N-(3,5-dimethylbenzyl)-2-methylpyrimidine-5-carboxamide]: the IC50 is 342 nM.

`COC(=O)C(NC(=O)c1cnc(C)nc1C1CCN(C(=O)Cc2c(F)cccc2F)CC1)c1cccc(Cl)c1` (centres unmarked) [Compound A75, methyl 2-(3-chlorophenyl)-2-(4-(1-(2-(2,6-difluorophenyl)acetyl)piperidin-4-yl)-2-methylpyrimidine-5-carboxamido)acetate]: the IC50 is 750 nM.

On to `Cc1nc(C)c(C(=O)NCc2cccc(C(F)(F)F)n2)c(C2CCN(C(=O)Cc3c(F)cccc3F)CC2)n1` [Compound A82, 4-(1-(2-(2,6-difluorophenyl)acetyl)piperidin-4-yl)-2,6-dimethyl-N-((6-(trifluoromethyl)pyridin-2-yl)methyl)pyrimidine-5-carboxamide], for which the IC50 was 6.2 nM.

For `Cc1cc(C)cc(CNC(C)c2cnc(C)nc2C2CCN(C(=O)Cc3c(F)cccc3F)CC2)c1` (centres unmarked) [Compound F9, 2-(2,6-Difluorophenyl)-1-(4-(5-(1-(3,5-dimethylbenzylamino)ethyl)-2-methylpyrimidin-4-yl)piperidin-1-yl)ethanone], the IC50 came to 29.9 nM.

In the case of `Cc1cc(C)cc(C/C=C\c2cnc(C)nc2C2CCN(C(=O)Cc3c(F)cccc3F)CC2)c1` [Compound J2, (Z)-2-(2,6-Difluorophenyl)-1-(4-(5-(3-(3,5-dimethylphenyl)prop-1-enyl)-2-methylpyrimidin-4-yl)piperidin-1-yl)ethanone], the half-inhibitory concentration (IC50) worked out at 28 nM.

For `Cc1cc(C)cc(CNC(=O)c2cnc(C)nc2C2CCN(CCc3ccccc3Cl)CC2)c1` [Compound A100, 4-(1-(2-chlorophenethyl)piperidin-4-yl)-N-(3,5-dimethylbenzyl)-2-methylpyrimidine-5-carboxamide], the IC50 worked out at 433 nM.

As to `Cc1cc(-c2nnc(-c3c(C)nc(C)nc3C3CCN(C(=O)Cc4c(F)cccc4F)CC3)o2)cc(Cl)n1` [Compound C19, 1-(4-(5-(5-(2-chloro-6-methylpyridin-4-yl)-1,3,4-oxadiazol-2-yl)-2,6-dimethylpyrimidin-4-yl)piperidin-1-yl)-2-(2,6-difluorophenyl)ethanone], the IC50 turned out to be 269 nM.

In the case of `C/C(=N\Oc1ccnc(C(F)(F)F)c1)c1cnc(N(C)C)nc1C1CCN(C(=O)Nc2c(F)cccc2F)CC1` [Compound B61, N-(2,6-Difluorophenyl)-4-{2-(dimethylamino)-5-[(1E)-N-{[2-(trifluoromethyl)pyridin-4-yl]oxy}ethanimidoyl]pyrimidin-4-yl}piperidine-1-carboxamide], the IC50 was found to be 367 nM.

`Cc1cc(C)cc(CNC(=O)c2cnc(C)nc2C2CCN(C(=O)C(F)(F)c3ccccc3)CC2)c1` [Compound A117, 4-{1-[Difluoro(phenyl)acetyl]piperidin-4-yl}-N-[(3,5-dimethylphenyl)methyl]-2-methylpyrimidine-5-carboxamide]: the IC50 came out at 253 nM.

As for `C/C(=N\Oc1cc(F)cc(Cl)c1)c1cnc(C)nc1C1CCN(C(=O)Cc2c(F)cccc2F)CC1` [Compound B12, (E)-1-(4-(5-(1-((3-chloro-5-fluorophenoxy)imino)ethyl)-2-methylpyrimidin-4-yl)piperidin-1-yl)-2-(2,6-difluorophenyl)ethanone], the IC50 came to 2.2 nM.

For the molecule `Cc1cc(C)cc(CNC(=O)c2cnc(C)nc2C2CCN(C(=O)Cc3cc(F)cc(F)c3)CC2)c1` [Compound A27, 4-(1-(2-(3,5-difluorophenyl)acetyl)piperidin-4-yl)-N-(3,5-dimethylbenzyl)-2-methylpyrimidine-5-carboxamide], the IC50 stood at 720 nM.

`Cc1cc(C)cc(CNC(=O)c2cnc(C)nc2C2CCN(C(=O)Cc3ccccc3F)CC2)c1` [Compound A12, N-(3,5-dimethylbenzyl)-4-(1-(2-(2-fluorophenyl)acetyl)piperidin-4-yl)-2-methylpyrimidine-5-carboxamide]: the IC50 was 50 nM.

Regarding `Cc1ncc(/C(CO)=N\Oc2ccnc(C(F)(F)F)n2)c(C2CCN(C(=O)Cc3c(F)cccc3F)CC2)n1` [Compound B26, (E)-2-(2,6-difluorophenyl)-1-(4-(5-(2-hydroxy-1-(((2-(trifluoromethyl)pyrimidin-4-yl)oxy)imino)ethyl)-2-methylpyrimidin-4-yl)piperidin-1-yl)ethanone], the IC50 turned out to be 95 nM.

As to `Cc1cc(C)cc(CNC(=O)c2cnc(C)nc2C2CCN(C(=O)Cc3c(F)cccc3C(F)(F)F)CC2)c1` [Compound A4, N-(3,5-dimethylbenzyl)-4-(1-(2-(2-fluoro-6-(trifluoromethyl)phenyl)acetyl)piperidin-4-yl)-2-methylpyrimidine-5-carboxamide], the IC50 was 7.8 nM.

Consider `CC(=O)Nc1nc(C)c(C(=O)COc2cccc(C(F)(F)F)n2)c(C2CCN(C(=O)Nc3c(F)cccc3F)CC2)n1` [Compound M12, 4-[2-(Acetylamino)-6-methyl-5-({[6-(trifluoromethyl)pyridin-2-yl]oxy}acetyl)pyrimidin-4-yl]-N-(2,6-difluorophenyl)piperidine-1-carboxamide], for which the IC50 was determined as 6.2 nM.
